Values quoted from earlier work as cited in patent US20050020536A1, “Highly pure fondaparinux sodium composition, process for preparing said composition and pharmaceutical compositions containing it as active principle” (priority 2003, published 2005).

System: factor Xa
Settings: general statement in the introduction, no method given

CO[C@H]1O[C@H](COS(=O)(=O)[O-])[C@@H](O[C@@H]2O[C@@H](C(=O)[O-])[C@@H](O[C@H]3O[C@H](COS(=O)(=O)[O-])[C@@H](O[C@@H]4O[C@H](C(=O)[O-])[C@@H](O[C@H]5O[C@H](COS(=O)(=O)[O-])[C@@H](O)[C@H](O)[C@H]5NS(=O)(=O)[O-])[C@H](O)[C@H]4O)[C@H](OS(=O)(=O)[O-])[C@H]3NS(=O)(=O)[O-])[C@H](O)[C@H]2OS(=O)(=O)[O-])[C@H](O)[C@H]1NS(=O)(=O)[O-].[Na+].[Na+].[Na+].[Na+].[Na+].[Na+].[Na+].[Na+].[Na+].[Na+] [Fondaparinux sodium, methyl O-2-deoxy-6-O-sulfo-2-(sulfoamino)-α-D-glucopyranosyl-(1→4)-O-β-D-glucopyranuronosyl-(1→4)-O-2-deoxy-3,6-di-O-sulfo-2-(sulfoamino)-α-D-glucopyranosyl-(1→4)-2-O-sulfo-α-D-glucopyranosyl-(1→4)-O-2-O-sulfo-L-idopyranurosyl-(1→4)-2-deoxy-6-O-sulfo-2-(sulfoamino)-α-D-glucopyranoside, decakissodium salt]
anti-factor Xa (anti Xa) activity: very powerful
